Results taken from patent US7192940B2, “Ether compounds” (Esperion Therapeutics, Inc., priority 1999, dated 2007).

Legend:
male Sprague-Dawley rats = assay: Serum lipids, apolipoproteins and weight gain in chow-fed male Sprague-Dawley rats after seven days of oral treatment; assay type: in vivo, rat; conditions: 100 mg/kg, 7 days, vs vehicle
Method: Illustrative compounds of the invention were administered daily at a dose of 100 mg/kg to chow fed male Sprague-Dawley rats for seven days in the morning by oral gavage in 1.5% carboxymethylcellulose/0.2% Tween-20 (dosing vehicle). Animals were weighed daily. Animals were allowed free access to rodent chow and water throughout the study. After the seventh dose, animals were sacrificed in the evening and blood serum was assayed for lipoprotein cholesterol profiles, serum triglycerides, total cholesterol VLDL, LDL, and HDL cholesterol, and the ratio of HDL cholesterol to that of VLDL plus LDL cholesterol, apolipoproteins A-I, C-II, C-III, and E by immunoelectrophoresis, and percent weight gain.
The five compounds were tested in two separate experiments. In each experiment, the experimental data were normalized against a control group of rats which received the dosing vehicle alone.

obese female Zucker rats [1] = assay: Experiment A: serum lipids, glucose, non-esterified fatty acids and weight gain in obese female Zucker rats after seven days of oral treatment; assay type: in vivo, rat; conditions: vehicle 6.6%
Method: Dosing vehicle, Compound A (86 mg/kg of body weight) or troglitazone (120 mg/kg of body weight) was administered to eight week old female obese Zucker rats daily for seven days in the morning by oral gavage in 1.5% carboxymethylcellulose/0.2% Tween-20. Troglitazone was obtained commercially. Finely crushed tablets were suspended in vehicle for dosing. Orbital blood samples were obtained following a six-hour fast prior to the initial dose and also following the seventh dose.
Blood serum was assayed for total cholesterol and triglycerides (FIG. 5), lipoprotein cholesterol profiles (FIG. 6), VLDL plus LDL cholesterol combined (also referred to as apo B containing lipoprotein cholesterol or non-HDL cholesterol), HDL cholesterol, and the ratio of HDL cholesterol to that of VLDL plus LDL cholesterol (FIG. 7), serum glucose, and non-esterified fatty acids (FIG. 8), and percent weight gain (FIG. 9). […] In particular, Compound A caused a marked elevation in HDL cholesterol after one week of treatment. Using the serum total cholesterol values (FIG. 5A) and the lipoprotein cholesterol distribution (FIG. 6), the amount of cholesterol associated with non-HDL (i.e., VLDL plus LDL) and HDL were determined (FIG. 7). […] In contrast, troglitazone reduced non-HDL and HDL cholesterol by 67% and 4%, respectively.

obese female Zucker rats [2] = assay: Experiments B, C, D & E: serum lipids, glucose, insulin, body and liver weight in obese female Zucker rats treated for 14 days; assay type: in vivo, rat; conditions: Experiment C
Method: In a number of different experiments, illustrative compounds of the invention and troglitazone were administered daily at various doses to 10-week old chow fed obese female Zucker rats for 14 days in the morning by oral gavage in 1.5% carboxymethylcellulose/0.2% Tween-20 (dosing vehicle). Animals were weighed daily. Animals were allowed free access to rodent chow and water throughout the study. Blood glucose was determined after a 6-hour fast in the afternoon without anesthesia from a tail vein. Serum was also prepared from a blood sample subsequently obtained from the orbital venous plexus (with O2/CO2 anesthesia) prior to and after one week treatment and used lipid and insulin determinations. At two weeks, blood glucose was again determined after a 6-hour fast without anesthesia from a tail vein. Soon thereafter, animals were sacrificed by CO2 inhalation in the evening and cardiac blood serum was collected and assessed for various lipids and insulin. Body weight was determined daily prior to dosing and at the time of euthanasia.

[3] = tested on: LDL receptor deficient mice; assay: Lipoprotein cholesterol profile in LDL receptor-deficient mice; assay type: in vivo; conditions: 300 mg/kg/day; one week; chow-fed female mice
From the text: The effect of Compound A on LDL levels in a murine model of homozygous familial hypercholesterolemia (Ishibashi et al., 1993, J. Clin. Invest. 92:883–893; Ishibashi et al., 1994, J. Clin. Invest. 93:1885–1893) was studied. LDL receptor-deficient mice have elevated LDL cholesterol relative to wild type mice when fed a chow diet. When fed cholesterol-enriched diets, these mice develop atherosclerosis.

primary rat hepatocytes = assay: Synthesis of non-saponified and saponified lipids (14C-acetate incorporation) in hepatocytes; assay type: cell-based; conditions: 100 μM; 2 hr 14C-acetate labeling; vs no compound control
Method: A male Sprague-Dawley rat was anesthetized by administration of sodium pentobarbitol by intraparitoneal injection at 50 mg/kg. In situ perfusion of the liver was performed as follows. […] To digest the liver, DSC solution (6.7 mM KCl, 143 mM NaCl, 9.2 mM Na HEPES, 5 mM CaCl2—2H2O, 1.7 mM Fructose, 0.029 mM Phenol red, 0.2% BSA, 100 U/ml collagenase Type I, 93 U/ml Hyaluronidase, 160 BAEE/ml trypsin inhibitor, pH 7.5) was perfused through the liver at a flow rate of 30 ml/min for 6 minutes at a temperature of 37° C. After digestion, cells were dispersed in a solution of DMEM− (DMEM containing 2 mM GlutMax-1, 0.2% BSA, 5% FBS, 12 nM insulin, 1.2 μM hydrocortisone) to stop the digestion process. The crude cell suspension was filtered through three layers of stainless steel mesh with pore sizes of 250, 106, and 75 μm respectively. Filtered cells were centrifuged at 50×g for two minutes and the supernatant discarded. The resulting cell pellet was resuspended in DMEM and centrifuged again. This final cell pellet was resuspended in DMEM+HS solution (DMEM containing 2 mM GlutMax-1, 20 nM delta-aminolevulinic acid, 17.4 mM MEM non-essential amino acids, 20% FBS, 12 nM insulin, 1.2 μM hydrocortisone) and plated to form monolayer cultures at a density of 100×10^3 cells/cm^2 on collagen coated culture dishes. […]

## CC(C)(CO)CCCCOCCCCC(C)(C)CO [Compound A, 6-(6-hydroxy-5,5-dimethylhexyloxy)-2,2-dimethyl-hexan-1-ol]
Male Sprague-Dawley rats
  change in VLDL cholesterol: no change
Obese female Zucker rats [1]; 86 mg/kg
  increase in body weight: 5.4%
Obese female Zucker rats [2]; 100 mg/kg
  glucose to insulin ratio: reduced
Obese female Zucker rats [2]; 100 mg/kg, fasted
  blood glucose: tendency to lower blood glucose
Obese female Zucker rats [2]; 1 and 3 mg/kg, over two weeks (same as control)
  decline of glucose to insulin ratio: ⅓ to ½
Obese female Zucker rats [2]; 10, 30 and 100 mg/kg, after one and two weeks
  weight gain: markedly reduced
Obese female Zucker rats [2]; 10 and 30 mg/kg
  glucose to insulin ratio: sustained at pretreatment levels
Obese female Zucker rats [2]; higher doses (above 3 mg/kg)
  sharp rise in serum insulin: largely curtailed or minimized
[3]
  HDL: HDL elevation
  LDL cholesterol: rapid and significant reduction

## CC(C)(CCCOCCCC(C)(C)OP(=O)(OCc1ccccc1)OCc1ccccc1)OP(=O)(OCc1ccccc1)OCc1ccccc1 [Compound E, phosphoric acid dibenzyl ester 4-(4-(bis-benzyloxy-phosphoryloxy)-4-methyl-pentyloxy)-1,1-dimethyl-butyl ester]
Primary rat hepatocytes
  rates of saponified fatty acid synthesis: reduced

## CC(C)(O)CCCCOCCCCC(C)(C)O [Compound F, 6-(5-hydroxy-5-methyl-hexyloxy)-2-methyl-hexan-2-ol]
Primary rat hepatocytes
  rates of saponified fatty acid synthesis: reduced

## Cc1c(C)c2c(c(C)c1O)CCC(C)(COc1ccc(CC3SC(=O)NC3=O)cc1)O2 (stereo not drawn) [troglitazone, reference compound]
Obese female Zucker rats [1]; 120 mg/kg
  weight gain: +11.6%
Obese female Zucker rats [2]; after two weeks at 12, 40 and 120 mg/kg, after one week at 120 mg/kg
  weight gain: increased weight gain
Obese female Zucker rats [2]; after two weeks, doses 12, 40, 120 mg/kg (FIG. 16)
  percent liver to body weight: reduced at all doses
